From ChEMBL document CHEMBL1134909, “A 5-fluorodeoxyuridine prodrug as targeted therapy for prostate cancer” (Bioorg Med Chem Lett, 2002)
*1 amine or outer side, *2 acyl side, *3 side chain or, on linkers, in order; H or OH if unused. Where a SMILES comes first, the peptide text is derived from it. [ ]: non-standard residue; d: D form. The star is where a group is joined. X1 = O=c1[nH]c(=O)n([C@H]2C[C@H](O)[C@@H](CO*)O2)cc1F; Morpholide = C1CN(*)CCO1; Aib = CC(C)(N)C(=O)O; CO = O=C([*:1])[*:2]

What was measured:
TSU = assay: Cytotoxic concentration in non prostate specific antigen (PSA) producing human TSU cells; format: functional, cell-based
LNCaP = assay: Cytotoxic concentration in prostate specific antigen (PSA) producing human LNCaP cells; format: functional, cell-based

Row | Compound | IC50 (TSU) [µM] | IC50 (LNCaP) [nM]
1 | CC(C)C[C@H](NC(=O)[C@H](CCCCN)NC(=O)[C@H](CO)NC(=O)[C@H](CO)NC(=O)[C@H](Cc1c[nH]cn1)NC(=O)N1CCOCC1)C(=O)N[C@@H](CCC(N)=O)C(=O)N[C@@H](CC(C)C)C(=O)NC(C)(C)C(=O)OC[C@H]1O[C@@H](n2cc(F)c(=O)[nH]c2=O)C[C@@H]1O ({Morpholide-CO}-HSSKLQL[Aib]-X1) | 7.2 | 117
2 | O=c1[nH]c(=O)n([C@H]2C[C@H](O)[C@@H](CO)O2)cc1F [FLOXURIDINE] | 0.058 | 69.2
